Like-named read-outs stand apart in the source and are kept apart here.

Holding throughout (type): cell-based
In test [1] the target is T1, SLC23A1 (Homo sapiens, UniProt Q9UHI7).
T1 construct: expressed in transfected cells; host or cells: Jump In T-REx HEK293 (general cell-line paragraph)
As to the kind of experiment: RESOLUTE assay on SLC23A1. As to the method:
FLIPR Membrane Potential Blue Dye was used to detect the compound activities for those membrane transporters that are electrogenic or whose activity is associated with changes in membrane potential, as previously described ([Jensen and BräunerOsborne, 2004]). In brief, cells are seeded at cell line-specific density in black clear-bottom poly-D-Lysine-coated 384-well plates (Greiner Bio-One) in DMEM high-glucose medium with 10% FBS, 1% P/S, and 2 mM UltraGlutamine I (25 µL/well). Furthermore, 24 h after seeding, the culture medium is removed, and the cells are loaded with 20 µL/well of 0.5 X FMP Blue Dye in assay buffer (modified Tyrode’s buffer, 130 mM NaCl, 5 mM KCl, 1 mM MgCl2, 2 mM CaCl2, 5 mM NaHCO3, and 20 mM HEPES pH 7.4). The plates are subsequently incubated for at least 30 min at room temperature in the dark. Then, 10 µL/well of test compounds and controls is added at defined concentrations (0.5% DMSO final conc.) in the FLIPR TETRA instrument (Molecular Devices), and emitted fluorescence is recorded using a λexc 510–545-nm/λem 565–625-nm filter. The dose–response curves for the 19 compounds were prepared starting from 3 µM (final top concentration), the half-log serial dilution factor. For data analysis, Genedata Screener 19.0 software was used.
The robust Z prime factor (RZ’ factor) was calculated with the following formula: RZ^′=1−3∗RSDMAX+RSDMIN/AbsMAX − MIN, where the RZ’ factor is based on the same formula as the Z′ factor ([Zhang et al., 1999]) but standard deviations and means are replaced by the robust standard deviations and medians, respectively. Curve fitting profiles were performed on each dose–response curve with the analyzer module of Genedata Screener 19.0 on % activity.

Test [2] concerns the target T2, NHE1 (SLC9A1) (Homo sapiens, UniProt P19634).
T2 construct: endogenous in cells; host or cells: MDA-MB-468
Briefly: BCECF-AM pH recovery assay, MDA-MB-468 breast cancer cells. How it is done: The cells were seeded (6.000 cells/well) in poly-d-lysine-coated 384-well plates (black, transparent bottom) and grown for 24 h at 37°C and 5% CO2. The media was removed, and the cells were washed once in sodium-free loading buffer (115 mM choline chloride, 20 mM NH4Cl, 5 mM KCl, 1 mM CaCl2, 1 mM MgCl2, 20 mM HEPES pH 7.4, and 5 mM glucose) and subsequently incubated for 30–45 min at 37°C in a loading buffer containing 10 µM 2′,7′-Bis(2-carboxyethyl)-5(6)-carboxyfluorescein tetrakis (acetoxymethyl) ester (BCECF-AM). The loading buffer was removed, and the cells were washed twice with NH4Cl-free acidification buffer (133.8 mM choline chloride, 4.7 mM KCl, 1.25 mM CaCl2, 1.25 mM MgCl2, 0.97 mM K2HPO4, 0.23 mM KH2PO4, 5 mM HEPES pH 7.4, and 5 mM glucose) using a plate dispenser (Multidrop Combi+, Thermo Fisher Scientific, US). The cells were incubated 5 min with 15 µL compounds at 2× concentration in acidification buffer. The assay readout was acquired using a plate reader (POLARstar Omega, BMG LABTECH, Germany) set to measure Ex./Em. at 440 nm/520 nm and 485 nm/520 nm over a period of 15 min. A baseline read was recorded before the plate readers automated dispensing of 15 µL recovery buffer (133.8 mM NaCl, 4.7 mM KCl, 1.25 mM CaCl2, 1.25 mM MgCl2, 0.97 mM Na2HPO4, 0.23 mM NaH2PO4, 5 mM HEPES pH 7.4, and 5 mM glucose), which initializes cellular pH recovery. The mean baseline measurement was subtracted from the intensities of each well, and a fluorescence intensity ratio for excitations at 485 nm and 440 nm was calculated. The data were normalized to DMSO (maximum) and no recovery controls (minimum). The data were analyzed using R, and the dr4pl package was used to fit dose–response data to the four-parameter logistic model.

Test [3] deals with SLC1A2 (Homo sapiens, UniProt P43004). Briefly: Echo-MS assay, uptake of labeled glutamic acid in dox-induced HEK293–JumpIn–SLC1A2 (EAAT2) cells. Also on record: expressed in transfected cells; host or cells: Jump In T-REx HEK293. As to the method: Before the Echo-MS experiment, 15,000 cells per well were seeded into the wells of a 384-well plate (Beckman Coulter) and induced with […] doxycycline. […] The next day, compounds with stock solutions of 10 mM were first diluted to a final concentration of 90 µM before starting a 10-stage dilution series with a dilution factor of 1:3 with the CyBio FeliX pipetting robot. After the supernatant in the plate of the cell plate assay was discarded (BlueWasher, BlueCatBio), 10 µL of potassium/wash buffer including the compound dilution series was transferred by the pipetting robot (FeliX, CyBio), yielding a highest final concentration of 30 µM compound per well. After an incubation time of 15 min, 20 μL of L-Glutamic acid-13C5,15N with a concentration of 300 µM was added and incubated in an incubator at 37°C, 7.5% CO2, and 95% humidity. After 1 h incubation time, the wells were washed with 70 µL potassium buffer per well, and the supernatant was discarded before the precipitation process was started by adding 90 µL/well precipitation reagent (60% MeOH, 29% H2O, 11% formic acid) using a Multidrop Combi reagent dispenser (Thermo Fisher Scientific). After 30 min on the shaker at 500 rpm, the plates were centrifuged for 20 min at 2,000 rpm. Finally, 40 µL/well was transferred on qualified 384-well plates and then measured with Echo-MS/ADE-MS (Sciex). ADE-MS measurements were performed on an ADE-MS device (Sciex) operated with Sciex OS software (version 2.1.6.59781). A carrier solvent (60% acetonitrile, 39% H2O, and 1% formic acid) was used at a constant flow rate of 300 μL/min. For all samples, an ejection volume of 5 nL (2 droplets) and a repetition rate of 2.5 s/well were used. Triple Quad 6500+ was operated in a positive mode using the following settings: vaporizer temperature 450°C, spray voltage 5500 V, ion source gas 1: 90 psi, ion source gas 2: 70 psi, curtain gas 20 psi, CAD gas 9 psi, dwell time […], DP 35 V, EP 10 V, CE 14 V, and CXP 18 V. Data were processed with Sciex OS and further processed with Genedata Screener (version 19.0.9-Standard). Transporter inhibition by the compounds was tracked by analyzing the MS signal area values of uptaken labeled glutamic acid into the cell. The signal ratio of the reaction product to the respective standard was calculated to diminish variations ascribed to the sample preparation procedure or the MS readout. Average control values were calculated and set to 100% activity (high controls) and 0% activity (low controls), while the response values of compound-containing wells were normalized against the controls and expressed as the percentage of control (PoC).

Where [4] appears, read: Flipr Membrane Potential-Blue-Dye, read-out: pIC50 (act), SLC23A1 (converted).
[5] abbreviates: BCECF, read-out: pIC50 (act), SLC9A1 (converted).
The mark [6] stands for this setting: target SLC1A2, assay EchoMS, read-out: pIC50 (act) (converted).
Where [7] appears, read: dox-induced HEK293–JumpIn–SLC1A2 cells, top conc. 30 µM, read-out: pIC50, SLC1A2, EchoMS (converted).

Sequence of SLC1A2 (P43004 whole entry): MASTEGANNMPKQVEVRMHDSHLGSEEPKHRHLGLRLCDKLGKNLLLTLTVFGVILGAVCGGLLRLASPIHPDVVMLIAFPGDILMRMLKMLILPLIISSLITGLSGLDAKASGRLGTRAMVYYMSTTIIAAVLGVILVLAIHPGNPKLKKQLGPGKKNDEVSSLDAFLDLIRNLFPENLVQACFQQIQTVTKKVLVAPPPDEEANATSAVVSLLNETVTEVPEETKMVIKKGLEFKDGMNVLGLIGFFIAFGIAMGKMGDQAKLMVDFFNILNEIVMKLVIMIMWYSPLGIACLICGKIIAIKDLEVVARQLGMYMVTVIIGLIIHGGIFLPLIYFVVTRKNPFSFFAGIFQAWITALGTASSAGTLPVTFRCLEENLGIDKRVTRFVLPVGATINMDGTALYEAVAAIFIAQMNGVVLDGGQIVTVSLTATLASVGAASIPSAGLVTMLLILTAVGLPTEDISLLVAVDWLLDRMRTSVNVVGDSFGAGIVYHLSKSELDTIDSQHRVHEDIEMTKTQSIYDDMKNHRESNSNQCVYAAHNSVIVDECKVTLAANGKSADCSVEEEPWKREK
T1 sequence (Q9UHI7 whole entry): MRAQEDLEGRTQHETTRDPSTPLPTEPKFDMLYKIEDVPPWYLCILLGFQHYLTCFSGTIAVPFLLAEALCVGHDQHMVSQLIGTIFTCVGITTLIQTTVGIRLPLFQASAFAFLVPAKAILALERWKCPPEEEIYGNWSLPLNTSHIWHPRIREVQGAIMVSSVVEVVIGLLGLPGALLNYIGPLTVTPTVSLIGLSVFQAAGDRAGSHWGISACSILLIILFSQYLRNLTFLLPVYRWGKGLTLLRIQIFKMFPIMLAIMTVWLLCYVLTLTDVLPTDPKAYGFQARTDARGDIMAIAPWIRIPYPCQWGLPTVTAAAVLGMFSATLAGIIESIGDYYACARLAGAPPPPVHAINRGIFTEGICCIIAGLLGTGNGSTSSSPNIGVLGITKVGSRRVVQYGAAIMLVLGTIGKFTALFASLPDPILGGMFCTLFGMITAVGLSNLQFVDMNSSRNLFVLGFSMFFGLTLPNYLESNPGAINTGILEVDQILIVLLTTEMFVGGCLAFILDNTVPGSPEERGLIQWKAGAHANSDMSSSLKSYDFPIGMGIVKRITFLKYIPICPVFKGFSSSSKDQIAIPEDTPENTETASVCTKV
T2 sequence (P19634 whole entry): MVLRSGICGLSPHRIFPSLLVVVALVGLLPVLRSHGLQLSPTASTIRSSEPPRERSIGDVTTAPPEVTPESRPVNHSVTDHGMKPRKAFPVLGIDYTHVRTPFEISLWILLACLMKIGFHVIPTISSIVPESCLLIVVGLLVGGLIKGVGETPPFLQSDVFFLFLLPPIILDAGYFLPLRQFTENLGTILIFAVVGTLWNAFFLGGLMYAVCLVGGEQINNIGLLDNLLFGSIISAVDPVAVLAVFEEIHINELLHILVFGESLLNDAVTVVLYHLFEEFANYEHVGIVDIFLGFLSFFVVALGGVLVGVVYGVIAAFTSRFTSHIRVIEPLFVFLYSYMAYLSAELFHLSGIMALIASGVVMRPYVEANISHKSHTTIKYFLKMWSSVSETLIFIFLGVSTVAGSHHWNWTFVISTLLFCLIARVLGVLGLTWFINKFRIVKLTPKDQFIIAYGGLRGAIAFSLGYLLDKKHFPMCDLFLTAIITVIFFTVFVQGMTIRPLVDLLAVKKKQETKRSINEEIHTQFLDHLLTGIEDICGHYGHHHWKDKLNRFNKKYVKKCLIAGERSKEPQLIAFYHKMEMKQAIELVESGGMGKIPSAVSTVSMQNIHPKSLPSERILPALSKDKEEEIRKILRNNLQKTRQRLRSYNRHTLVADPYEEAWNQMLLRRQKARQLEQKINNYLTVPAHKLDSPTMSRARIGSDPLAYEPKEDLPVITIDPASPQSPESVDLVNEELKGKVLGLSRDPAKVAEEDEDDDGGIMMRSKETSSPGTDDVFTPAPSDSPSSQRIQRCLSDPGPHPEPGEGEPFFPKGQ

In the case of `Cc1c(NC(=O)c2cc(C(N)=O)nc3cc(F)ccc23)c(C(F)(F)F)nn1Cc1ccc(C#N)cc1` [BAY-876], the values for the IC50 in test [1] (setting [4]), in test [2] (setting [5]) and in test [3] (setting [6]) were more than 3.16 µM, more than 10 µM and more than 30 µM, respectively.
As for `CN1C2CCC1CC(OC(c1ccccc1)c1ccccc1)C2` (stereo not drawn) [Benzotropine], the values for the IC50 in test [1] (setting [4]), in test [2] (setting [5]) and in test [3] (setting [6]) were more than 3.16 µM, more than 10 µM and more than 30 µM, respectively.
As to `CCNC(=O)/C=C/c1cccc(Br)c1` [Cinromide], the IC50 was more than 3.16 µM in test [1] (setting [4]), more than 10 µM in test [2] (setting [5]) and more than 30 µM in test [3] (setting [6]).
For `O=S(=O)(O)c1cc(N=C=S)ccc1/C=C/c1ccc(N=C=S)cc1S(=O)(=O)O` [DIDS], in that order: more than 3.16 µM, more than 10 µM and more than 30 µM.
For `COCCOc1cc(CC2CCN(CCc3ccc4c(c3)C(=O)CCO4)CC2)ccc1Br` [DSP-1053], in that order: more than 3.16 µM, more than 10 µM and 11.7 µM.
Consider `CNCCCN1c2ccccc2CCc2ccccc21` [Desipramine], for which the figures for the IC50 in test [1] (setting [4]), in test [2] (setting [5]) and in test [3] (setting [6]) were more than 3.16 µM, more than 10 µM and more than 30 µM, respectively.
Take `CC(C)[C@H]1CN[C@H](C(=O)O)[C@H]1CC(=O)O` [Dihydrokainate]: the IC50 in test [1] (setting [4]) is more than 3.16 µM; in test [2] (setting [5]), more than 10 µM; in test [3] (setting [6]), more than 30 µM.
For `N#Cc1ccc(Nc2cnccc2SCc2ccccc2C(=O)O)c2ccccc12` [KPH2f], in that order: more than 3.16 µM, more than 10 µM and more than 30 µM.
For the compound `C=C(C)[C@H]1CN[C@H](C(=O)O)[C@H]1CC(=O)O` [Kainic acid], the IC50 in test [1] is more than 3.16 µM; in test [2] it was more than 10 µM; in test [3], more than 30 µM.
On to `CCOC(=O)N1CCC(=C2c3ccc(Cl)cc3CCc3cccnc32)CC1` [Loratadine], for which the IC50 in test [1] (setting [4]) is more than 3.16 µM; in test [2] (setting [5]), more than 10 µM; in test [3] (setting [6]), more than 30 µM.
For `Nc1nc2ccc(OC(F)(F)F)cc2s1` [Riluzole], in that order: more than 3.16 µM, more than 10 µM and more than 30 µM.
With `N[C@H](C(=O)O)[C@H](OCc1cccc(NC(=O)c2ccc(C(F)(F)F)cc2)c1)C(=O)O` [TFB-TBOA], the IC50 in test [1] (setting [4]) was more than 3.16 µM; in test [2] (setting [5]), more than 10 µM; in test [3] (setting [7]), 0.00794 µM; in test [3] (setting [6]), 0.0088 µM.
For `NC(C(=O)O)C(OCc1ccccc1)C(=O)O` (stereo not drawn) [Threo-beta-benzyloxyaspartic acid, Threo-beta-Benzyloxyaspartic acid], in that order: more than 3.16 µM, more than 10 µM, 7.94 µM and 8.6 µM.
For the compound `Cc1ccsc1C(=CCCN1CCC[C@@H](C(=O)O)C1)c1sccc1C` [Tiagabine], the IC50 in test [1] (setting [4]) was more than 3.16 µM; in test [2] (setting [5]), more than 10 µM; in test [3] (setting [6]), more than 30 µM.
For `COc1ccc(C2C(C#N)=C(N)OC3=C2C(=O)CC(c2cccc4ccccc24)C3)cc1` (stereo not drawn) [UCPH-101], the IC50 in test [1] (setting [4]) was more than 3.16 µM; in test [2] (setting [5]) it was more than 10 µM; in test [3] (setting [6]), more than 30 µM.
Taken in the same sequence, the figures for `CC1C(C#N)=C(N)OC2=C1C(=O)CC(c1cccc3ccccc13)C2` (stereo not drawn) [UCPH-102] were more than 3.16 µM, more than 10 µM and more than 30 µM.
For `Fc1ccc(C(OCCN2CCN(CCCc3ccccc3)CC2)c2ccc(F)cc2)cc1` [Vanoxerine (GBR12909), Vanoxerine], in that order: more than 3.16 µM, more than 10 µM and 19.7 µM.
Consider `N[C@@H](CC(=O)Nc1ccc(Oc2cc(F)c(F)cc2Br)cc1)C(=O)O` [WAY-213613], for which the IC50 is more than 3.16 µM in test [1] (setting [4]), more than 10 µM in test [2] (setting [5]), 0.251 µM in test [3] (setting [7]) and 0.26 µM in test [3] (setting [6]).

(Values after article PMC11267547, “Advancing drug discovery through assay development: a survey of tool compounds within the human solute carrier superfamily” (Frontiers in Pharmacology, 2024).)
